Measured values taken from patent US12466792B2 (priority 2021, dated 2025).

Columns and labels:
[1] = tested on: SARS-COV-2; assay: microbe, parasite or virus in culture; format: cell-based; conditions: Severe acute respiratory syndrome coronavirus 2, 72 h, read-out: ID50 (Antiviral Data)
[2] = target: SARS-COV-2 3CLpro (Severe acute respiratory syndrome coronavirus 2, UniProt P0DTD1); assay: biochemical

Row | SMILES | IC50 [1] | IC50 [2]
1 | C=CCN(C(=O)c1cc2c(OC)cccc2[nH]1)[C@@H](CC(C)C)C(=O)N[C@H](C#N)C[C@@H]1CCNC1=O | > 100 µM | 0.0001 to 0.999 µM
2 | CC(C)C[C@H](NC(=O)OCc1ccccn1)C(=O)N[C@H](C#N)C[C@@H]1CCCNC1=O | > 100 µM | 0.0001 to 0.999 µM
3 | CC(C)C[C@H](NC(=O)OCc1ccccc1)C(=O)N[C@H](C#N)C[C@@H]1CCCNC1=O | 1 to 10 µM | 0.0001 to 0.999 µM
4 | COc1cccc2[nH]c(C(=O)N[C@@H](CC(C)C)C(=O)N[C@H](C#N)C[C@@H]3CCCNC3=O)cc12 | 10.1 to 100 µM | 1 to 10 µM
5 | CC(C)C[C@@H](C(=O)N[C@H](C#N)C[C@@H]1CCNC1=O)N(C)C(=O)[C@@H](NC(=O)C(F)(F)F)C(C)(C)C | 10.1 to 100 µM | 0.0001 to 0.999 µM
6 | CC(C)C[C@H](NC(=O)OCc1cccnc1)C(=O)N[C@H](C#N)C[C@@H]1CCCNC1=O | > 100 µM | 0.0001 to 0.999 µM
7 | CC(C)C[C@H](NC(=O)OCc1ccncc1)C(=O)N[C@H](C#N)C[C@@H]1CCNC1=O | > 100 µM | 0.0001 to 0.999 µM
8 | CC(C)C[C@@H](C(=O)N[C@H](C#N)C[C@@H]1CCNC1=O)N(C)C(=O)[C@@H](NC(=O)C(F)(F)F)C(C)C | 10.1 to 100 µM | 1 to 10 µM
9 | COc1cccc2[nH]c(C(=O)N(C)[C@@H](CC(C)C)C(=O)N[C@H](C#N)C[C@@H]3CCNC3=O)cc12 | > 100 µM | 0.0001 to 0.999 µM
10 | CC(C)C[C@H](NC(=O)OCc1ccncc1)C(=O)N[C@H](C#N)C[C@@H]1CCCNC1=O | > 100 µM | 0.0001 to 0.999 µM
